These results are taken from ChEMBL document CHEMBL5543140 (J Med Chem, 2024).

The term inhibition denotes the change of the read-out against control, counted positive when it falls. As usually defined, the Emax is the maximal effect, on the per cent scale that the assay sets.

For series [1], the target named is 5-hydroxytryptamine receptor 2B (Homo sapiens, UniProt P41595). Briefly: Agonist activity at human 5-HT2B receptor expressed in CHO cells assessed as maximal IP2 production measured after 30 mins incubation by HTRF assay relative to control. The series is classed as functional, cell-based. (In TR-FRET formats the signal depends on donor and acceptor labels being close together.)

For series [2], the target named is Adrenergic receptor alpha-2 (Rattus norvegicus) (UniProt P22086+P19328+P22909). Nature of the series: Displacement of [3H]RX 821002 from rat cerebral cortex alpha2 adrenergic receptor assessed as remaining activity at 10 uM after 60 mins by scintillation counting method relative to control. For orientation: Displacement assays read how much labelled ligand stays bound in the presence of the test substance.

In series [3] the test system is Mus musculus. Nature of the series: Locomotor activity in C57BL/6J mouse assessed as distance traveled at 1 mg/kg, ip measured for 15 to 25 mins. The series is classed as functional. Particulars: time 15-25 min.
Series [4] concerns the target Muscarinic acetylcholine receptor M5 (Homo sapiens) (UniProt P08912). Nature of the series: Displacement of [3H]4-DAMP from human recombinant muscarinic M5 receptor expressed in HEK293 cells at 10 uM incubated for 60 mins by radiometric based scintillation counter assay relative to control. It is filed as cell-based.
In series [5] the target is Muscarinic acetylcholine receptor M4 (Homo sapiens) (UniProt P08173). Nature of the series: Displacement of [3H]4-DAMP from human recombinant muscarinic M4 receptor expressed in HEK293 cells at 10 uM incubated for 60 mins by radiometric based scintillation counter assay relative to control. The series is classed as cell-based.
Series [6] concerns the target 5-hydroxytryptamine receptor 2C (Homo sapiens) (UniProt P28335). Nature of the series: Agonist activity at human 5-HT2C receptor expressed in HEK293 cells assessed as maximal IP2 production measured after 30 mins incubation by HTRF assay relative to control. Particulars: filed as agonist. It is filed as functional, cell-based.
Series [7] deals with T1, 5-hydroxytryptamine receptor 1A (Homo sapiens) (UniProt P08908).
T1 sequence (whole entry): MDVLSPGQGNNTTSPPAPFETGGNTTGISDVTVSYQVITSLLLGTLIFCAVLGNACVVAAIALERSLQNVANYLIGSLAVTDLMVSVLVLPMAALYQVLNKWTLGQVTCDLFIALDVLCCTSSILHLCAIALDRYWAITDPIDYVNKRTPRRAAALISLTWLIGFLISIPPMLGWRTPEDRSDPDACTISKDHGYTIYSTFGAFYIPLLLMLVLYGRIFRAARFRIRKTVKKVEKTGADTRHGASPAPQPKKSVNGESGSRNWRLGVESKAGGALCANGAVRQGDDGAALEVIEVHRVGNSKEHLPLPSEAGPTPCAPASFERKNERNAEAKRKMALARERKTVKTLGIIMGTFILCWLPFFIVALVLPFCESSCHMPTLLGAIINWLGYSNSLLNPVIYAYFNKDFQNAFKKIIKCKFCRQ
Nature of the series: Agonist activity at human 5-HT1A receptor expressed in HEK293T cells co-transfected with 22F-Glosensor assessed as inhibition of cAMP production measured after 30 mins incubation by Microbeta2Micro-plate counter analysis. It is filed as functional, cell-based. Particulars: filed as agonist. Background: Changes in cAMP serve as a functional read-out for many G protein-coupled receptors.

For series [8], the target named is Voltage-dependent L-type calcium channel subunit alpha-1C (Homo sapiens, UniProt Q13936). Briefly: Binding affinity to human Calcium channel L-type (verapamil site) at 10 uM measured after 180 mins by [3H]D888-Radiometric assay relative to control.
Series [9] concerns Mus musculus. Briefly: Psychedelic effect in C57BL/6J mouse assessed as induction of 5-HT2A receptor dependent maximal head-twitch responses by visual observation at 1 mg/kg, sc at 15 to 220 mins. The series is classed as functional, organism-based. Particulars: time lower 15.0 min, time upper […].
The target in series [10] is Muscarinic acetylcholine receptor M1 (Homo sapiens) (UniProt P11229). Briefly: Displacement of [3H]-Pirenzepine from human muscarinic M1 expressed in CHO-K1 cells membrane at 10 uM incubated for 60 mins by microbeta liquid scintillation counting analysis. It is filed as cell membranes. Particulars: Cell membrane.

Molecules are shown by their SMILES. The source made the active and inactive calls. The rule behind the calls is not given here.

Chain of 5-hydroxytryptamine receptor 2B (P41595 whole entry): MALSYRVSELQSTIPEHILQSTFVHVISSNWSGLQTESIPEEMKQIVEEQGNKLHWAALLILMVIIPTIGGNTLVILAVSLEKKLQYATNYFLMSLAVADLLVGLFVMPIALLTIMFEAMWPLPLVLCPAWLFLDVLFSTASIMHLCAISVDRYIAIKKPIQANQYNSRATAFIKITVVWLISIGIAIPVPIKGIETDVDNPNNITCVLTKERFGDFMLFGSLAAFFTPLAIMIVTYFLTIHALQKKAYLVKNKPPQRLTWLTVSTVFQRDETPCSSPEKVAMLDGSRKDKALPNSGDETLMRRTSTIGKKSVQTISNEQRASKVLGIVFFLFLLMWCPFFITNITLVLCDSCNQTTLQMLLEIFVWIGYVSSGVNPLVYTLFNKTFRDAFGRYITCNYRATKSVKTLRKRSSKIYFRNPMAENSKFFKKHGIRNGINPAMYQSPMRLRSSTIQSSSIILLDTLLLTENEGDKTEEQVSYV
Chain of Voltage-dependent L-type calcium channel subunit alpha-1C (Q13936 whole entry): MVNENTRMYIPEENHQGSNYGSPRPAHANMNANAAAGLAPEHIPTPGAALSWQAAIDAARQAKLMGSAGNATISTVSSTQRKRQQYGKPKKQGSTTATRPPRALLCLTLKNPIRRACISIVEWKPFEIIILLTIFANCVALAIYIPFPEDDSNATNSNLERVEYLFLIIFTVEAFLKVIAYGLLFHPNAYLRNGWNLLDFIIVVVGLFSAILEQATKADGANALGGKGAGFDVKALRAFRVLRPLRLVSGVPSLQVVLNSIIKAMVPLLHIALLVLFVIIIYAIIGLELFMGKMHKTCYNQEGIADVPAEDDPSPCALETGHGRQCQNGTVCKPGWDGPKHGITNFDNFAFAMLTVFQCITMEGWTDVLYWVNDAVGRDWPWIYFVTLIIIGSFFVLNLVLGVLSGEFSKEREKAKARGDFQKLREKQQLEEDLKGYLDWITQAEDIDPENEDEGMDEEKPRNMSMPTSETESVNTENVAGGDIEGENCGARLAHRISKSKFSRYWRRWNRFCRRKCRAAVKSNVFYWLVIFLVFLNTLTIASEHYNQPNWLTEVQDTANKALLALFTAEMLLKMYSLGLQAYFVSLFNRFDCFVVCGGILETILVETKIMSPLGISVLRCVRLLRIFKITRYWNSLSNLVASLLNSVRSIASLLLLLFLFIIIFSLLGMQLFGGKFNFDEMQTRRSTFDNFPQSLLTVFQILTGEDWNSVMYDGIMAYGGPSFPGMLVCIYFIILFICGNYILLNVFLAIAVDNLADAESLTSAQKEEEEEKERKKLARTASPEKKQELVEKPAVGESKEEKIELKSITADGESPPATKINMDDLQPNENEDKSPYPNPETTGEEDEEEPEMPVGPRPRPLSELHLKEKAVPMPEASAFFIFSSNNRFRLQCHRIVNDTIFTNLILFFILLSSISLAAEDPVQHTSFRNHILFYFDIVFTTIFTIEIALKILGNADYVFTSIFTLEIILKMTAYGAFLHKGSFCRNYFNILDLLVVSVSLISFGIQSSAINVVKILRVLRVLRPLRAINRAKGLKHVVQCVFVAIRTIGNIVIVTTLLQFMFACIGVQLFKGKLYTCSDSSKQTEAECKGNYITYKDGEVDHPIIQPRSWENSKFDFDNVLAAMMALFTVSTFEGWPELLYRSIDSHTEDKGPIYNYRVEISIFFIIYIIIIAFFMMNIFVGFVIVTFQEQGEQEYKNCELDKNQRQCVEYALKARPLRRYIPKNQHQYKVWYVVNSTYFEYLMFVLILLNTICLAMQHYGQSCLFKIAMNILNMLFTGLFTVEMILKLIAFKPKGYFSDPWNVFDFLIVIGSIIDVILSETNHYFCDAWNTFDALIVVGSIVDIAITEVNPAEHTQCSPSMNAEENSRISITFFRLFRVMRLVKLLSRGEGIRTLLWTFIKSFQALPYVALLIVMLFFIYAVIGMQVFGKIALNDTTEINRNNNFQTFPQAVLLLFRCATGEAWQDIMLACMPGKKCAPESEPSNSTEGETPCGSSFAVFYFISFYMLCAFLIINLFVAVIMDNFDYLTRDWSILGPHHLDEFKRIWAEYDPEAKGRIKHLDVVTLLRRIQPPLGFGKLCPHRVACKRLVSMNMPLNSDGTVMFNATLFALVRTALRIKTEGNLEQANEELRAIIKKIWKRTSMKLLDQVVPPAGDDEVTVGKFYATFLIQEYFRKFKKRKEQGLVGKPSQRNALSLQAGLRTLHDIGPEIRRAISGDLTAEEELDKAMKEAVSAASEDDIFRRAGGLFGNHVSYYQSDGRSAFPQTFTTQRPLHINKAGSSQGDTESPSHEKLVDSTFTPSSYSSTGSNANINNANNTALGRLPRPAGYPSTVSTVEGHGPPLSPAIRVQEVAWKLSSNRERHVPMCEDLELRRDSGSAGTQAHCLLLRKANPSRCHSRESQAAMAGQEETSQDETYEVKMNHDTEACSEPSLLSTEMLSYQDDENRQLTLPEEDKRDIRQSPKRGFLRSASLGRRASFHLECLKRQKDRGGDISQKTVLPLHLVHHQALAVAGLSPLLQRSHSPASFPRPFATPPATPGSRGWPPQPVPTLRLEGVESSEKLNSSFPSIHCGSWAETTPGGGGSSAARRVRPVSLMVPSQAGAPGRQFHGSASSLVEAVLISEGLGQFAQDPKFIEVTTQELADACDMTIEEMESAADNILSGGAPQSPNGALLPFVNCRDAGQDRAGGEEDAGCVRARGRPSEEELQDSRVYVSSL
Chain of Muscarinic acetylcholine receptor M1 (Homo sapiens) (P11229 whole entry): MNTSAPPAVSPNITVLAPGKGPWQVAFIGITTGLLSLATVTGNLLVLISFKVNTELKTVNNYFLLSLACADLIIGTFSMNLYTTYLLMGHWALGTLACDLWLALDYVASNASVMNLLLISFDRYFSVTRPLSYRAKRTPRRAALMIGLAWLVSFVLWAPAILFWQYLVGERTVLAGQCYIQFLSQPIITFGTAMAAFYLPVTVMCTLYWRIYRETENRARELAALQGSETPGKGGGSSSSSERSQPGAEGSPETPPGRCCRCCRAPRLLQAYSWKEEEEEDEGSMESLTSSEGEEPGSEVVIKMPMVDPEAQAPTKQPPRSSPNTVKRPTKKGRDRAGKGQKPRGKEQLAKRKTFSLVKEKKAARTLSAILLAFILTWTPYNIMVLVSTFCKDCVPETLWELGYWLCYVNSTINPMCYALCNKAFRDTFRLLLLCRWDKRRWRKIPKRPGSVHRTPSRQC
Chain of Muscarinic acetylcholine receptor M5 (Homo sapiens) (P08912 whole entry): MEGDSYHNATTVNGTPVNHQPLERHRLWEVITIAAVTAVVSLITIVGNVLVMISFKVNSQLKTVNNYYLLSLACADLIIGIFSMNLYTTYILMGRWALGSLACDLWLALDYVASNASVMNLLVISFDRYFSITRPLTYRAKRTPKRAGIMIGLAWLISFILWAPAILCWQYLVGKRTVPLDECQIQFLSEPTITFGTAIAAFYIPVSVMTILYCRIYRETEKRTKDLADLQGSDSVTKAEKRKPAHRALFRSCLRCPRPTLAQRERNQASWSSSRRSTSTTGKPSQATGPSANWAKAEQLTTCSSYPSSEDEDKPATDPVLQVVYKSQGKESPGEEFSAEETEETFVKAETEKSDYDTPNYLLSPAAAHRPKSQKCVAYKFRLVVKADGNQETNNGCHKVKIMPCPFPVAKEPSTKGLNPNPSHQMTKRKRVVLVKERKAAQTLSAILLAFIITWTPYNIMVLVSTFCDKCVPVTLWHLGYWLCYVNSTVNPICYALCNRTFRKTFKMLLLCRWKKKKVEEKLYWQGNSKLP
Chain of 5-hydroxytryptamine receptor 2C (Homo sapiens) (P28335 whole entry): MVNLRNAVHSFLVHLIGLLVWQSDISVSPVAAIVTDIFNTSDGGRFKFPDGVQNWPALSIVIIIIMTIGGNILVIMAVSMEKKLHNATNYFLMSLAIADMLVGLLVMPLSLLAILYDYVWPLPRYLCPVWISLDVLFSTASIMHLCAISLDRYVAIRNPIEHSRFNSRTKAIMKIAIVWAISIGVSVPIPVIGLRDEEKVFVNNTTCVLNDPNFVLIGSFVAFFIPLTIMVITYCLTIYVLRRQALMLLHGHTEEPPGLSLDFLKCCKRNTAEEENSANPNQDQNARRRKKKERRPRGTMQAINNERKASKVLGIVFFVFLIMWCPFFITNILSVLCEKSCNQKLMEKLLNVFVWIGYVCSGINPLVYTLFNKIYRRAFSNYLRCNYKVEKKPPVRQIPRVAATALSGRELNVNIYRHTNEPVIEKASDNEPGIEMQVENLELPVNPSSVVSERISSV
Chain of Muscarinic acetylcholine receptor M4 (Homo sapiens) (P08173 whole entry): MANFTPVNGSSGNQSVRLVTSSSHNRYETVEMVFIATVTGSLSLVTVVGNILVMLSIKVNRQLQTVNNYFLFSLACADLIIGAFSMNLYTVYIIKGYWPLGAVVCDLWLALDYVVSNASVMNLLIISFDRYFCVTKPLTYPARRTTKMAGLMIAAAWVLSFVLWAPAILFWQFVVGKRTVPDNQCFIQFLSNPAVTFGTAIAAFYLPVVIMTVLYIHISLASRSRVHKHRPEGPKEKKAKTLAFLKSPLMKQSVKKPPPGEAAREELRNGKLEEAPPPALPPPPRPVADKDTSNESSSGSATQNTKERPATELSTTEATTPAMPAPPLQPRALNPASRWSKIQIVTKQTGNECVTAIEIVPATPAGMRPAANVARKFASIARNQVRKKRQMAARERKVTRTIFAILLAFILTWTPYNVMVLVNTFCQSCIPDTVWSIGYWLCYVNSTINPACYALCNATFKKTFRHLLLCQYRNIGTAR

Regarding `COc1cc(CC(C)N)c(OC)cc1I` (racemic), the results for the EC50 in [1] (read-out: EC50) and in series [1] (read-out: pEC50 (converted)) were 7 nM and 7.94 nM, respectively. Further, the Activity is 82% in series [2], 2812 cm with Mus musculus [3] and 56% in [8]. Further, the inhibition was found to be 63% in [4], 76% in series [5] and 72% in series [10]. Besides, the Emax in [6] is 96%; in [7], 103%. The result in the series on Mus musculus [9] was Active.
